From ChEMBL document CHEMBL4052645, “Discovery of potent and efficacious pyrrolopyridazines as dual JAK1/3 inhibitors” (Bioorg Med Chem Lett, 2017) come the findings set out here.

Data set [1] addresses Tyrosine-protein kinase JAK2 (Homo sapiens, UniProt O60674). Put plainly: Inhibition of GST-tagged JAK2 (unknown origin) after 3 hrs by Caliper assay.
Data set [2] is described as follows: Protein binding in mouse plasma at 10 mg/kg, po. It counts as ADME, organism-based. Particulars: read-out: PPB (converted).
The target of data set [3] is T1, Tyrosine-protein kinase JAK3 (Homo sapiens, UniProt P52333).
T1 sequence (P52333 whole entry): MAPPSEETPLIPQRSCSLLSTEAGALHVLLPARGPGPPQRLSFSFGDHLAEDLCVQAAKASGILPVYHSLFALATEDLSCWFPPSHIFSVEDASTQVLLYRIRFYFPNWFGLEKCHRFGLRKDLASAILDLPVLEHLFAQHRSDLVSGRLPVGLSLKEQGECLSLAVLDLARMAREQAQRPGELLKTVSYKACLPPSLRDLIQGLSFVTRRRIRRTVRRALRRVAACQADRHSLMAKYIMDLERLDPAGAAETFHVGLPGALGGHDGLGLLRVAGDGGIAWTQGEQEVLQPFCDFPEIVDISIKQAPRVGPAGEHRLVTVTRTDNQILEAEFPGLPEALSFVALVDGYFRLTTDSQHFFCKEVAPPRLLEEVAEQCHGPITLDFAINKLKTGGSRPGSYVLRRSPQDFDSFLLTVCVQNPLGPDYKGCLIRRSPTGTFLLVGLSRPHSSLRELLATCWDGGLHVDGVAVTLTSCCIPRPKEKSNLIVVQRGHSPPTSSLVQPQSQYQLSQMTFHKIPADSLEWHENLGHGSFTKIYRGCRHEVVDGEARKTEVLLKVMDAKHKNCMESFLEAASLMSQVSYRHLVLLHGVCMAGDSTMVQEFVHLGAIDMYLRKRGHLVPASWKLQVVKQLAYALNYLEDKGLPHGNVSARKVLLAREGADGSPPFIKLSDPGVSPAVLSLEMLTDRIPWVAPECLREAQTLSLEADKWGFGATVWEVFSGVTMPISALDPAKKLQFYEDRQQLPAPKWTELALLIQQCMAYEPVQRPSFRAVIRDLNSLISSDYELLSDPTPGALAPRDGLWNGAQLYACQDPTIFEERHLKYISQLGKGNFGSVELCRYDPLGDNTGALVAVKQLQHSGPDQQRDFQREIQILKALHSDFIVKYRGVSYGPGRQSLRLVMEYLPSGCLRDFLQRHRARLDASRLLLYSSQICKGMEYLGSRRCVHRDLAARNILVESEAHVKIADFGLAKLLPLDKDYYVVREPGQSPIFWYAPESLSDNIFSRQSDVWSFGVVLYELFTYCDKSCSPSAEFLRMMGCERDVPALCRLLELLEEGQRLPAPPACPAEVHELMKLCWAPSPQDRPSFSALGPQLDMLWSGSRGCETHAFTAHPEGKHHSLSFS
Put plainly: Inhibition of JAK3 (unknown origin) using CSKtide as substrate after 30 mins in presence of [gamma33P]ATP by liquid scintillation counting method.

The nature of data set [4]: Selectivity ratio of IC50 for JAK2 dependent EPO-induced STAT5A phosphorylation in human TF1 cells to IC50 for JAK1/JAK3 dependent IL2-induced STAT3 phosphorylation in human PBMC derived T-cells.
Data set [5] in a line: Cmax in mouse at 10 mg/kg, po. It counts as ADME, organism-based. Further details: dose 10 mg/kg, route oral. Particulars: in vivo.
Data set [6] in a line: Permeability from apical side to basolateral side in human Caco2 cells. The format is ADME, cell-based. As to conditions: Caco-2, read-out: permeability.
A further data set deals with JAK3/JAK1 (Homo sapiens, UniProt P23458+P52333). Nature of the data set: Inhibition of JAK1/JAK3 in human whole blood assessed as reduction in IL-2 induced IFN-gamma production after 18 hrs by ELISA. The format is protein-complex assay.
Data set [7] has as its target Non-receptor tyrosine-protein kinase TYK2 (Homo sapiens, UniProt P29597). Nature of the data set: Inhibition of His-tagged TYK2 (unknown origin) after 3 hrs by Caliper assay.
Data set [8] is described as follows: Metabolic stability in mouse liver microsomes assessed as compound remaining after 10 mins. The format is ADME, microsome. Particulars: read-out: Stability.
For data set [9], the target named is Voltage-gated inwardly rectifying potassium channel KCNH2 (Homo sapiens, UniProt Q12809). Nature of the data set: Inhibition of human ERG by flux-based assay.
The target of data set [10] is Tyrosine-protein kinase JAK1 (Homo sapiens, UniProt P23458). Put plainly: Inhibition of GST-tagged JAK1 (unknown origin) after 3 hrs by Caliper assay.
The subject of data set [11] is Mus musculus. Nature of the data set: Antiarthritic activity in collagen-induced arthritis mouse model assessed as reduction in inflammation at 20 mg/kg bid measure up to 41 days. It counts as functional, organism-based.
Data set [12] deals with Mus musculus. Nature of the data set: Antiarthritic activity in collagen-induced mouse model assessed as […] at 20 mg/kg bid up to 41 days. It counts as functional, organism-based.
A short description of data set [13]: Cmax in mouse at 10 mg/kg, po after 8 hrs. The format is ADME, organism-based. Further details: dose 10 mg/kg, route oral. Particulars: in vivo.
The nature of data set [14]: Cmin in mouse at 10 mg/kg, po after 8 hrs. As to conditions: in vivo, read-out: Cmin. It counts as ADME, organism-based.
The species named for the next data set is Rattus norvegicus. Put plainly: Clearance of compound in rat relative to hepatic blood flow. Particulars: in vivo. The format is ADME.
Another data set relates to Serum. Nature of the data set: Protein binding in human serum. The format is ADME, cell-free.
The nature of data set [15]: Clearance of compound in rat. The format is ADME. As to conditions: in vivo.
Data set [16] can be described thus: Oral bioavailability in rat. As to conditions: in vivo. It counts as ADME, organism-based.

Active and inactive are the calls of the source. No cut-off for these calls is given here.

Chain of Tyrosine-protein kinase JAK2 (O60674 whole entry): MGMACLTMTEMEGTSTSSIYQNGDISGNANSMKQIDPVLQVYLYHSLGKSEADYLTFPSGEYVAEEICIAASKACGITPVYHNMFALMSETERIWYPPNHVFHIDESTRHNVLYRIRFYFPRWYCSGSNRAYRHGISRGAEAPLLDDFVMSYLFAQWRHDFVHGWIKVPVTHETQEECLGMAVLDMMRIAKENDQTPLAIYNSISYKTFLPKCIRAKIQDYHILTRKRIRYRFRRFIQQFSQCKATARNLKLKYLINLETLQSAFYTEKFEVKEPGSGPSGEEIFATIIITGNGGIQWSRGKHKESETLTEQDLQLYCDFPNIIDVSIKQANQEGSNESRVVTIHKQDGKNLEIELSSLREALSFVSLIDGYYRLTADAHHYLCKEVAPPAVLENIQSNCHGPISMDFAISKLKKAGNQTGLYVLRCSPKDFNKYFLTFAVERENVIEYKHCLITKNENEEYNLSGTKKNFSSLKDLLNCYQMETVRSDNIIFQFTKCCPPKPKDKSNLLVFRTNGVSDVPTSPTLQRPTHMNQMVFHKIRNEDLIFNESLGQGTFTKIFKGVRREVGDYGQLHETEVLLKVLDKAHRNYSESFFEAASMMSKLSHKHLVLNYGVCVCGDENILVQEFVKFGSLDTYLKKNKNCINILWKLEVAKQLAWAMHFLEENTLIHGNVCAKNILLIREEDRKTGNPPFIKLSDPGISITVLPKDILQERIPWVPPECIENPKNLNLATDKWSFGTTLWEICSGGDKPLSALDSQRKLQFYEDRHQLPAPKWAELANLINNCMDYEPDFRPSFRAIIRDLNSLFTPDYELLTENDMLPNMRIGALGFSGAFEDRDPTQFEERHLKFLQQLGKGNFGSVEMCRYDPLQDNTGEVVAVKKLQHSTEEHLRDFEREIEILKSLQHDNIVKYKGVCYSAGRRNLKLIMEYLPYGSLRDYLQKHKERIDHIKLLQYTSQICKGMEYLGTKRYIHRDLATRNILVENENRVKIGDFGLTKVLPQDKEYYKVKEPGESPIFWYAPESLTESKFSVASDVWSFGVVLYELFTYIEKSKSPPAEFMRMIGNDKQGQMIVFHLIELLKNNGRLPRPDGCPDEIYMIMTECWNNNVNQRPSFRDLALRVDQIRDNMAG
Chain of Voltage-gated inwardly rectifying potassium channel KCNH2 (Q12809 whole entry): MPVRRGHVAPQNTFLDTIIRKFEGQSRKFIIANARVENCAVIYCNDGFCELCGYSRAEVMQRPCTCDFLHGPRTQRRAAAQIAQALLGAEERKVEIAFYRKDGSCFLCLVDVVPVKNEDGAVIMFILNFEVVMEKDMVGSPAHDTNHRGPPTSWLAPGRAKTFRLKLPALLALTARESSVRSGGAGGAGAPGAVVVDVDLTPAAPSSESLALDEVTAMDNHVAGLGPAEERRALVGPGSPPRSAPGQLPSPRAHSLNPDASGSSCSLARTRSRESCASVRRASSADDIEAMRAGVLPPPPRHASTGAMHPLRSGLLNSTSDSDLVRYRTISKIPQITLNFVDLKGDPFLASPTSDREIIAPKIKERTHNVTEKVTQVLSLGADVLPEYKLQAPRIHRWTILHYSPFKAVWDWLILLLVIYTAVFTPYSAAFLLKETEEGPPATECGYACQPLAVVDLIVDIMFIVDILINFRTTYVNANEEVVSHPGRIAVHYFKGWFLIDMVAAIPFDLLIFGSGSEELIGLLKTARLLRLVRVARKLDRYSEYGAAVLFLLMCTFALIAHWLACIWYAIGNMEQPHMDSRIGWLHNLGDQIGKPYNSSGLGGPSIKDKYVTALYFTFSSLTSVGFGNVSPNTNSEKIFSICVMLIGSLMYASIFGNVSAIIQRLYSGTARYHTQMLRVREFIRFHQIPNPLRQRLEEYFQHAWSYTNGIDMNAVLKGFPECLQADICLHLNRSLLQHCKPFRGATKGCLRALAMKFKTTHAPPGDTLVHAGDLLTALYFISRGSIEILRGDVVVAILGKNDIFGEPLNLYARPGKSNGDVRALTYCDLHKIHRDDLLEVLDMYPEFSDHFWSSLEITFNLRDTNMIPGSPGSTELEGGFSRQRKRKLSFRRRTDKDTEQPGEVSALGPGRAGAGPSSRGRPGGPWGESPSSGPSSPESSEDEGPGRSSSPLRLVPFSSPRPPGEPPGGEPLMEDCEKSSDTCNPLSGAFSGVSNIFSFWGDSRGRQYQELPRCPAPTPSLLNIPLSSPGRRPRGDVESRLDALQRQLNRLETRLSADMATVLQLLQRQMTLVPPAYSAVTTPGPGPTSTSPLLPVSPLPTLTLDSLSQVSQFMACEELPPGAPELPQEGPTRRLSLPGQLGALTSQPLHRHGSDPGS
Chain of Non-receptor tyrosine-protein kinase TYK2 (P29597 whole entry): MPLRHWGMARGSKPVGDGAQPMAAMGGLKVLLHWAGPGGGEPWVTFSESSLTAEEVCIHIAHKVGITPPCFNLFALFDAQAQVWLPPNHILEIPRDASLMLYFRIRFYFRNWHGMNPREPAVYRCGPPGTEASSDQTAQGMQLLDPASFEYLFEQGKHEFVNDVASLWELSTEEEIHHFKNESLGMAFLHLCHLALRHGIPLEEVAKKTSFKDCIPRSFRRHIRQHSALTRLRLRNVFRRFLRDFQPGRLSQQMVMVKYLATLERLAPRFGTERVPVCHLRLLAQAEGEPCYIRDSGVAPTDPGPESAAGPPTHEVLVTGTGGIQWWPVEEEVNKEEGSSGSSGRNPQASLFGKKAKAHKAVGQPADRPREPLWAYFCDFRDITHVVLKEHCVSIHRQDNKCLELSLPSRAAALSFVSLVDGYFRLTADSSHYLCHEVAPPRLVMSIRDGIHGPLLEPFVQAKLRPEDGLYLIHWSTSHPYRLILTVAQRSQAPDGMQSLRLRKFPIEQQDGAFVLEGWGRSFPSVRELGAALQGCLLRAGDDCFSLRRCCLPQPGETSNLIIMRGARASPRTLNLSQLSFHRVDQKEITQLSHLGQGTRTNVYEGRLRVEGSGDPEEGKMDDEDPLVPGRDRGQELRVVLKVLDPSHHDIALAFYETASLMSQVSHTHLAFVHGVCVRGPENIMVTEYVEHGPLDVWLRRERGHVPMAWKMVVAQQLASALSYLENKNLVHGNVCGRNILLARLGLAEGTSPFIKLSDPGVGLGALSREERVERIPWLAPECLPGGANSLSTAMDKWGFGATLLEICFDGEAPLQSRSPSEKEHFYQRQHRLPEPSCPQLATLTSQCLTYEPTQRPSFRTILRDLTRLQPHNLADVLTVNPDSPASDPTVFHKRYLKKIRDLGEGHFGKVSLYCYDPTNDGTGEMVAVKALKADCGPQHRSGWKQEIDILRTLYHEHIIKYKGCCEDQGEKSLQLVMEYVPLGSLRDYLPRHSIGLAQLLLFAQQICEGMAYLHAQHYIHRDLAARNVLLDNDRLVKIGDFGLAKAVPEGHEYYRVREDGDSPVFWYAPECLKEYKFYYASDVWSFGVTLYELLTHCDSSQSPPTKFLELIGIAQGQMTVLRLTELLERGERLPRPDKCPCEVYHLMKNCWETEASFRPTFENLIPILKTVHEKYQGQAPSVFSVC
Chain of Tyrosine-protein kinase JAK1 (P23458 whole entry): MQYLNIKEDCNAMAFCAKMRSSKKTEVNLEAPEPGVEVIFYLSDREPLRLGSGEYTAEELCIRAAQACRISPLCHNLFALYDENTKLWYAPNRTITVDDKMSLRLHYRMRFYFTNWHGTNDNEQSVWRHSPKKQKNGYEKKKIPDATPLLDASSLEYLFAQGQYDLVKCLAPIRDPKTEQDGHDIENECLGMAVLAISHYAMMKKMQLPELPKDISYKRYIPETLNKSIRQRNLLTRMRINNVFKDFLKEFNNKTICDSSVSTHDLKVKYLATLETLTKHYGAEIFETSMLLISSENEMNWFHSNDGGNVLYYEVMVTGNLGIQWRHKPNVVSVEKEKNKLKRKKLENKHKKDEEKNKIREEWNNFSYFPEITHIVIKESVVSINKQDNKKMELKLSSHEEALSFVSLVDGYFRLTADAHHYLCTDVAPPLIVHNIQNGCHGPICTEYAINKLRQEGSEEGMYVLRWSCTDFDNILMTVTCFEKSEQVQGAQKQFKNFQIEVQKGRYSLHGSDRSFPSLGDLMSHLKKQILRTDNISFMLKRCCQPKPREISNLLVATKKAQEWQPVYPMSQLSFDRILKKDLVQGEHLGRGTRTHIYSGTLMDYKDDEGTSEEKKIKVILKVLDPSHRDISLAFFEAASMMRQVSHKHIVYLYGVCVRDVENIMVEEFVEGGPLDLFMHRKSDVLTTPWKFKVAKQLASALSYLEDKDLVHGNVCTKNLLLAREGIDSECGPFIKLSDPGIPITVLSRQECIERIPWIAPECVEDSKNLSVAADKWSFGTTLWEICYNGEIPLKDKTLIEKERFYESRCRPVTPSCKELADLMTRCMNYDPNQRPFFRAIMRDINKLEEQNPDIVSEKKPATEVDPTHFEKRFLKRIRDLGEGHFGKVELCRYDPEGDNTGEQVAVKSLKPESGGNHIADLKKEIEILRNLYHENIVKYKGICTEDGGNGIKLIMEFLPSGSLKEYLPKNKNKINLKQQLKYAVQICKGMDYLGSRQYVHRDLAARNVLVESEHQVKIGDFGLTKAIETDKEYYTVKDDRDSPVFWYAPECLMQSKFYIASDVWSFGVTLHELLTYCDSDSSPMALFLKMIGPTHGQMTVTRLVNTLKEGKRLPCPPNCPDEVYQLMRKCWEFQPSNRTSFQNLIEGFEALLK
Chain of JAK3/JAK1 (P23458 whole entry, one chain of several): as the sequence (P23458 whole entry) above

For the compound `CC1(C)[C@H](Nc2c(C(N)=O)cnn3cc(-c4ccncc4F)cc23)CC[C@]1(C)N`, the IC50 was 70 nM in data set [1]; 4.6 nM in data set [3]; 120 nM on JAK3/JAK1; 46 nM in data set [7]; above 80000 nM in [9]; 3.6 nM in [10]. In data set [2], the fraction unbound is 0.22. The “Ratio IC50” value in data set [4] is 150. In [5], this compound returned a Cmax below 250 nM. The Papp A→B in data set [6] was 2.3 ×10⁻⁶ cm/s. Further, the remaining at 10 min in data set [8] is 68%.

On to `CC1(C)[C@H](Nc2c(C(N)=O)cnn3cc(-c4ccncc4)cc23)CC[C@]1(C)N`, for which the 50% inhibitory concentration (IC50) in data set [1] amounted to 80 nM; in [3] it was 6.7 nM; on JAK3/JAK1, 56 nM; in [7], 44 nM; in data set [10], 4.9 nM. For the same compound, the fraction unbound in data set [2] was 0.31. The compound further had a Cmax in data set [5] below 250 nM. For the same compound, the Papp A→B in data set [6] was below 1.5 ×10⁻⁶ cm/s. The remaining at 10 min in data set [8] stood at 75%.

Take `C[C@@H]1CCN(C(=O)CC#N)C[C@@H]1N(C)c1ncnc2[nH]ccc12`: the result in the data set on Mus musculus [11] and in the data set on Mus musculus [12] was Active.

Regarding `CC1(C)[C@H](Nc2c(C(N)=O)cnn3cc(-c4ccc(F)nc4)cc23)CC[C@]1(C)N`, the concentration for half-maximal inhibition (IC50) in data set [1] is 19 nM; in data set [3] it was 0.4 nM; at JAK3/JAK1, 100 nM; in data set [7], 27 nM; in data set [9], 35000 nM; in [10], 2.2 nM. Besides, the Cmax in data set [13] turned out to be 300 nM. Moreover, the “Ratio IC50” value in [4] was determined as 13. Moreover, the Papp A→B in [6] is below 1.5 ×10⁻⁶ cm/s. Moreover, the concentration at 8 h in data set [14] amounted to 100 nM. The remaining at 10 min in data set [8] came to 88%.

Regarding `CC1(C)[C@H](Nc2c(C(N)=O)cnn3cccc23)CC[C@]1(C)N`, in the data set filed under Rattus norvegicus, the CL is given as above 100%. The compound also came in with a PB in the data set on Serum of 97%. The clearance in [15] worked out at 145 mL/min/kg. In [16], this compound came in with a bioavailability of 24%.

For the compound `CC1(C)[C@H](Nc2c(C(N)=O)cnn3cc(-c4cc[nH]n4)cc23)CC[C@]1(C)N`, the IC50 in data set [1] amounted to 21 nM; in data set [3] it was 1.6 nM; on JAK3/JAK1 it was 81 nM; in data set [7], 14 nM; in [10], 1.7 nM. For the same compound, the fraction unbound in data set [2] was 0.51. Further, in [5], the Cmax is below 250 nM. Besides, in data set [6], the Papp A→B came to 6.5 ×10⁻⁶ cm/s. Besides, in [8], the remaining at 10 min is 83%.

As to `CC(C)Oc1ccc(-c2cc3c(N[C@@H]4CC[C@](C)(N)C4(C)C)c(C(N)=O)cnn3c2)cn1`, the IC50 is 20 nM in [1]; 0.5 nM in data set [3]; 400 nM on JAK3/JAK1; 30 nM in [7]; 5300 nM in [9]; 1.2 nM in data set [10]. Further, the “Ratio IC50” value in data set [4] stood at 2.

Take `Cc1cccc(-c2cc3c(N[C@@H]4CC[C@](C)(N)C4(C)C)c(C(N)=O)cnn3c2)c1`: the IC50 in data set [1] was 11 nM; in [3], 0.9 nM; on JAK3/JAK1, 700 nM; in [7], 7.9 nM; in [9] it was 7700 nM; in [10], 0.9 nM. For the same compound, in data set [4], the “Ratio IC50” value is listed as 50.
